Reference: US20230210838A1, “METHODS FOR TREATING CANCER OR VON-HIPPEL LINDAU DISEASE USING A COMBINATION OF A HIF-2 ALPHA INHIBITOR AND LENVATINIB” (Merck Sharp & Dohme LLC, priority 2020, published 2023)
Values joined by “and” are separate entries in the source; they are usually repeats but may differ in a detail not shown here. Equal entries are not always repeated.

Legend:
[1] = system: UMRC2 human VHL-deficient renal cell carcinoma xenograft; test: VHL-deficient renal cell carcinoma xenograft tumor model; assay type: in vivo; conditions: for anti-tumor activity compared to the vehicle control group: Day 34, one-way ANOVA with Tukey's multiple comparisons; for Final CRs: complete tumor regressions at end of study; for Final CRs / Final PRs: 10 mice per group; for Final PRs: partial tumor regressions at end of study; for TGI: respective to Vehicle-treated animals at Day 34, MK-6482 3 mg/kg BID oral, Lenvatinib 10 mg/kg QD oral
Method: Prior to treatment initiation, female SCID Beige mice aged 7 weeks weighing between 18 to 21 grams were anesthetized and inoculated subcutaneously on the rear flank with single cell suspension of approximately 95% viable log-phase sub-confluent UMRC2 (5.0×10^6) cells in 0.1 mL of serum-free Dulbecco's Modified Eagle Medium (DMEM) to initiate tumor development. Treatment was initiated when the mean tumor volume of inoculated animals reached approximately 205 mm^3. Mice were pair-matched into 4 treatment groups consisting of 10 mice per group. Treatment groups consisted of: 1) 0.5% methylcellulose+0.5% Tween 80 (Vehicle); 2) MK-6482; 3) Lenvatinib; 4) MK-6482+Lenvatinib. Vehicle and MK-6482 were orally gavage-dosed twice daily (BID) at 3 mg/kg body weight. Lenvatinib was orally dosed once daily (QD) at 10 mg/kg body weight. Treatment began on Day 0 and completed on Day 34. —Caliper measurements of tumors and body weights were captured twice weekly. Statistical analysis was performed by one-way ANOVA with Tukey's multiple comparisons tests at the end of the study, Day 34.
CRs were defined as no observable tumor whereas PRs were tumors whose volume was lower than the original tumor size when treatment began.

[2] = Phase 1 cross-over study of the effect of food on the PK of MK-6482 in healthy volunteers; assay type: in vivo, human; conditions: single dose 120 mg, healthy female adult volunteers
[3] = FIH Phase 1 study of tolerability, safety, PK of MK-6482 in participants with advanced solid tumors; assay type: in vivo, human
Method: As of 6 Sep. […] 52 additional participants with advanced RCC were treated in an expansion cohort (Part 1B) at the clinical dose of 120 mg QD.

[4] = system: advanced RCC; test: FIH Phase 1 study, best response by RECIST v1.1 in previously treated advanced RCC; assay type: in vivo, human; conditions: 120 mg QD, 55 participants with previously treated advanced RCC
Method: A FIH Phase 1 study designed to assess the tolerability, safety, PK, and PD properties of MK-6482 in participants with various advanced solid tumors is ongoing. As of 6 Sep. 2019 a total of 104 participants had been enrolled, including 43 participants with various advanced solid tumors in the dose-escalation portion (Part 1A) ranging from 20 to 240 mg QD and 120 mg BID. The MTD was not reached and 2 treatment-related DLTs were observed: 1 Grade 4 event of thrombocytopenia in the 240 mg QD cohort, and 1 Grade 3 event of hypoxia in the 120 mg BID cohort. The 120 mg QD dose was selected for further clinical development based on favorable PK, pharmacodynamic, and safety findings. 52 additional participants with advanced RCC were treated in an expansion cohort (Part 1B) at the clinical dose of 120 mg QD. […] In total, 55 participants with previously treated advanced RCC have been treated in this study with MK-6482 at 120 mg QD (3 patients in the dose-escalation portion of the study and 52 participants in the dose expansion portion of the study). Best response among these 55 participants included 11 participants (20%) with PR and 32 participants (58%) with SD as assessed by RECIST v1.1.

[5] = Phase 2 open-label efficacy and safety study in VHL disease associated RCC; assay type: in vivo, human; conditions: 120 mg QD, 61 participants with VHL disease associated RCC
Description: A Phase 2, open-label efficacy and safety study in participants with VHL disease associated RCC is ongoing. As of 6 Sep.

[6] = combined dose escalation and expansion cohorts

Structure (SMILES)	anti-tumor activity compared to the vehicle control group [1]	Final CRs [1]	Final PRs [1]	TGI [1]	delay of time to peak MK-6482 exposure, median difference (Fed—Fasted) [2]	most common adverse event (headache), incidence [2]	effect of high fat, high calorie meal on extent of MK-6482 exposure ([2]; fed vs fasted)	lowering of maximum plasma MK-6482 concentration by high fat, high calorie meal ([2]; fed vs fasted)	accumulation from Day 1 to Day 15 ([3]; 120 mg QD expansion cohort (Part 1B))	treatment-related DLTs observed (number) ([3]; 1 Grade 4 thrombocytopenia in 240 mg QD cohort, 1 Grade 3 hypoxia in 120 mg BID cohort)	most common AEs (anemia, fatigue, dyspnea, nausea, peripheral edema), share of participants [3, 6]	most common Grade 3 AEs (anemia and hypoxia), share of participants [3, 6]	MTD ([3]; dose escalation (Part 1A) 20 to 240 mg QD and 120 mg BID)	Cmax ([3]; human, in vivo, 120 mg QD expansion cohort (Part 1B), Day 15, read-out: mean steady state Cmax)	half-life ([3]; human, in vivo, 120 mg QD expansion cohort (Part 1B), Day 15, read-out: mean steady state t1/2 (converted))	best response PR, number of participants [4]	best response PR, share of participants [4]	best response SD, number of participants [4]	best response SD, share of participants [4]	most common AE of ≥Grade 3 toxicity (fatigue), share of participants [5]
COc1cc2nccc(Oc3ccc(NC(=O)NC4CC4)c(Cl)c3)c2cc1C(N)=O [Lenvatinib, 4-[3-chloro-4-(cyclopropylaminocarbonyl)aminophenoxy]-7-methoxy-6-quinolinecarboxamide]	significant anti-tumor activity	0/10 PRs, 0/10 CRs	0/10 PRs, 0/10 CRs	83%	–	–	–	–	–	–	–	–	–	–	–	–	–	–	–	–
CS(=O)(=O)c1ccc(Oc2cc(F)cc(C#N)c2)c2c1[C@H](O)[C@H](F)[C@@H]2F [MK-6482, 3-[(1S,2S,3R)-2,3-difluoro-1-hydroxy-7-methylsulfonyl-indan-4-yl]oxy-5-fluoro-benzonitrile]	significant anti-tumor activity	0/10	1/10	51%	2 h	12.5%	did not affect	approximately 35%	1.5 fold	2	≥ 20%	≥ 5%	not reached	1790 ng/mL and 4.67 µM	15.4 h	11 participants	20%	32 participants	58%	≥ 5%
